The supplement of paper PMC10307832

Key:
Assay in all cases: relative viability (nuclei count vs DMSO), 5 days (fraction); higher = more cells survive
[1] = compound: COc1cc(Nc2ncc(F)c(Nc3ccc4c(n3)NC(=O)C(C)(C)O4)n2)cc(OC)c1OC [R406] + Cc1nc(NC(=O)N2CCC[C@H]2C(N)=O)sc1-c1ccnc(C(C)(C)C(F)(F)F)c1 [Alpelisib] (partner 2 µM)
In short: (§1)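 Relative viability divides the nuclei count in treated wells by that in vehicle wells. Lung cancer cell lines were seeded in 1536-well plates, dosed by pin tool the next day, and fixed and stained after 5 days in one step with final 0.05% Triton X-100, 1% formaldehyde and 1 ug/ml Hoechst. Dosing was a single drug or a fixed anchor-drug dose plus five library-drug doses (not always all listed) in √10 steps, and values are medians of duplicate plates imaged at 4×.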

[2] = compound: O=C(/C=C/c1cccnc1)NCCCCC1CCN(C(=O)c2ccccc2)CC1 [Daporinad] + N=C(N)NC(=N)NCCc1ccccc1 [Phenformin] (partner 250 µM)
In short: as §1

[3] = compound: O=C(/C=C/c1cccnc1)NCCCCC1CCN(C(=O)c2ccccc2)CC1 [Daporinad] + COc1cc2c(Oc3ccc(NC(=O)C4(C(=O)Nc5ccc(F)cc5)CC4)cc3F)ccnc2cc1OCCCN1CCOCC1 [Foretinib] (partner 0.25 µM)
In short: as §1

[4] = compound: COc1cc(Nc2ncc(F)c(Nc3ccc4c(n3)NC(=O)C(C)(C)O4)n2)cc(OC)c1OC [R406] + Cc1nc(Nc2ncc(C(=O)Nc3c(C)cccc3Cl)s2)cc(N2CCN(CCO)CC2)n1 [Dasatinib] (partner 0.075 µM)
In short: as §1

| Cell Line | relative viability ([1]; first compound 0.08 µM) | relative viability ([1]; first compound 0.253 µM) | relative viability ([1]; first compound 0.8 µM) | relative viability ([1]; first compound 2.53 µM) | relative viability ([1]; first compound 8 µM) | relative viability ([2]; first compound 0.0005 µM) | relative viability ([2]; first compound 0.001581 µM) | relative viability ([2]; first compound 0.005 µM) | relative viability ([2]; first compound 0.01581 µM) | relative viability ([3]; first compound 0.0005 µM) | relative viability ([3]; first compound 0.001581 µM) | relative viability ([3]; first compound 0.005 µM) | relative viability ([3]; first compound 0.01581 µM) | relative viability ([4]; first compound 0.08 µM) | relative viability ([4]; first compound 0.253 µM) | relative viability ([4]; first compound 0.8 µM) | relative viability ([4]; first compound 2.53 µM) | relative viability ([4]; first compound 8 µM) |
| --- | --- | --- | --- | --- | --- | --- | --- | --- | --- | --- | --- | --- | --- | --- | --- | --- | --- | --- |
| 201T | 1.03 | 1.02 | 1.04 | 0.979 | 0.86 | 0.423 | 0.456 | 0.499 | 0.463 | 1.08 | 1.14 | 1.02 | 1.16 | 0.578 | 0.548 | 0.502 | 0.467 | 0.41 |
| A549 | 0.703 | 0.932 | 0.811 | 0.646 | 0.164 | 0.216 | 0.253 | 0.133 | 0.156 | 1.03 | 0.964 | 0.887 | 0.867 |  |  |  |  |  |
| A-427 | 1.14 | 1.17 | 1.12 | 0.928 | 0.843 | 0.298 | 0.356 | 0.295 | 0.191 | 1.01 | 1.06 | 1.08 | 0.596 | 0.743 | 0.746 | 0.74 | 0.427 | 0.54 |
| ABC-1 | 1.3 | 0.963 | 1.29 | 0.821 | 0.518 | 0.257 | 0.244 | 0.285 | 0.285 | 1.09 | 1.01 | 1.01 | 0.662 | 0.535 | 0.54 | 0.415 | 0.363 | 0.298 |
| BEN | 1.08 | 1.3 | 1.07 | 0.99 | 0.766 | 0.289 | 0.237 | 0.261 | 0.292 | 0.513 | 0.722 | 0.735 | 0.773 | 0.337 | 0.312 | 0.309 | 0.413 | 0.31 |
| CAL-12T | 1.3 | 1.54 | 1.83 | 1.03 | 0.923 | 0.523 | 0.613 | 0.296 | 0.188 | 1.09 | 0.938 | 0.758 | 0.272 | 0.357 | 0.397 | 0.483 | 0.0973 | 0.0797 |
| COR-L23 | 0.725 | 0.947 | 0.828 | 0.553 | 0.388 | 0.422 | 0.463 | 0.317 | 0.194 | 0.993 | 1.01 | 1.14 | 0.282 | 0.464 | 0.469 | 0.598 | 0.379 | 0.158 |
| COR-L 105 | 1.26 | 1.01 | 1.4 | 0.757 | 0.641 | 0.491 | 0.485 | 0.545 | 0.607 | 1.09 | 0.812 | 0.983 | 1.14 | 0.332 | 0.387 | 0.354 | 0.317 | 0.204 |
| Calu-6 | 1.01 | 1.14 | 1.13 | 0.66 | 0.389 |  |  |  |  | 0.768 | 0.874 | 0.772 | 0.35 |  |  |  |  |  |
| ChaGo-K-1 |  |  |  |  |  | 0.513 | 0.532 | 0.434 | 0.274 | 0.968 | 0.943 | 0.966 | 0.382 | 0.568 | 0.579 | 0.661 | 0.498 | 0.442 |
| EBC-1 | 0.826 | 0.969 | 1.03 | 0.606 | 0.386 |  |  |  |  | 0.101 | 0.0907 | 0.0742 | 0.0756 |  |  |  |  |  |
| EKVX | 0.928 | 0.992 | 1.06 | 0.77 | 0.635 | 0.212 | 0.23 | 0.251 | 0.227 | 0.747 | 0.443 | 0.877 | 0.756 | 0.626 | 0.32 | 0.511 | 0.402 | 0.367 |
| EMC-BAC-2 | 0.773 | 0.786 | 0.801 | 0.628 | 0.384 | 0.57 | 0.631 | 0.417 | 0.298 | 1.14 | 1.1 | 0.518 | 0.314 | 0.293 | 0.331 | 0.385 | 0.186 | 0.173 |
| EPLC-272H | 0.989 | 1.2 | 0.969 | 0.607 | 0.567 | 0.265 | 0.299 | 0.373 | 0.368 | 0.695 | 0.925 | 0.845 | 1.11 | 0.319 | 0.39 | 0.321 | 0.128 | 0.102 |
| H3255 | 0.693 | 0.746 | 0.623 | 0.511 | 0.418 | 0.355 | 0.341 | 0.379 | 0.424 | 0.709 | 0.688 | 0.672 | 0.992 | 0.33 |  | 0.372 | 0.285 | 0.317 |
| HARA | 0.801 | 0.721 | 0.879 | 0.637 | 0.249 | 0.412 | 0.397 | 0.426 | 0.114 | 0.942 | 0.98 | 0.922 | 0.279 | 0.235 | 0.267 | 0.296 | 0.248 | 0.113 |
| HCC-15 | 0.859 | 0.887 | 0.981 |  | 0.753 | 0.421 | 0.617 | 0.567 | 0.586 | 0.916 | 1.22 | 1.12 | 1.12 | 0.629 | 0.735 | 0.662 | 0.602 | 0.331 |
| HCC-44 | 0.787 | 1 | 0.883 | 0.739 | 0.262 | 0.255 | 0.189 | 0.233 | 0.182 |  |  |  |  |  |  |  |  |  |
| HCC-78 | 0.313 | 0.33 | 0.377 | 0.295 | 0.214 | 0.619 |  | 0.839 | 0.819 | 0.54 |  | 0.594 | 0.62 | 0.362 | 0.335 | 0.4 | 0.307 | 0.237 |
| HCC-366 | 0.41 | 0.439 | 0.441 |  | 0.0784 | 0.565 | 0.584 | 0.633 | 0.606 | 0.962 | 0.844 | 0.972 | 0.959 | 0.62 | 0.799 | 0.735 | 0.546 | 0.235 |
